The values below come from patent publication US20040259853A1, “Methods for preventing acute clinical vascular events in a subject” (The Trustees of Columbia University, priority 2000, published 2004).

The subject of experiment [1] is mouse peritoneal macrophages. Conditions: very low doses; reference 22; cited from earlier work.
For experiment [2], the system named is ABCA1-mediated cholesterol efflux. The experiment is described as follows: 3H-cholesterol efflux to apoA-I from free cholesterol-loaded macrophages. In kind it is cell-based, mouse. On the procedure: Peritoneal macrophages from C57 mice were incubated for 5 h with 100 μg/ml ^3H-cholesterol-labeled acetyl-LDL in DMEM, 0.2% BSA, in the presence of 10 μg/ml 58035.
Acetyl-LDL (800 μg) was incubated with 10 μCi ^3H-cholesterol for 30 min at 37° C., followed by addition of 8 ml of DMEM, 0.2% BSA. The macrophages were incubated with this medium for 5 h, washed 3 times with PBS, and then incubated with DMEM, 0.2% BSA for 15 min at 37° C. After washing with PBS, the macrophages were incubated with DMEM, 0.2% BSA, containing either 15 μg/ml apoAI or 20 μg/ml HDL2. At the indicated time points, 100 μl of media was removed and centrifuged for 5 min at 14,000 rpm to pellet cellular debris. The radioactivity in this fraction of media was quantitated by liquid scintillation counting. After the last time point, the remainder of the media was removed, and the cells were dissolved in 0.5 ml of 0.1 N NaOH containing 0.5% sodium dodecylsulfate (5 h at room temperature). A 100 μl-aliquot of the cell lysate was counted, and the percent efflux was calculated as (media cpm)[…](cell +media cpm)×100. Total protein in the cell lysate was determined using the Bio-Rad DC protein assay kit. Note that there was no statistical difference in cellular cpm or protein between cholesteryl ester- and free cholesterol-loaded macrophages.

Experiment [3] shares this test system. Described as above. In kind it is cell-based, mouse. As to conditions: 70 nM; macrophages incubated for a prolonged period with acetyl-LDL without ACAT inhibitor (FIG. 12C).
Experiment [4] deals with LDL receptor knockout mice. The experiment is described as follows: In vivo efficacy in LDL receptor knockout mouse model of atherosclerosis. Conditions: 0.75 mg/kg/d. On the procedure: Plasma was assayed for total cholesterol.
Asteriks denote statistically significant differences between drug and control groups (p<0.05 by the Student's t test).

Another experiment relates to ER calcium stores. Nature of the experiment: Assay of ER calcium pools (Fura-2, thapsigargin release). Conditions: 70 nM, acetyl-LDL + 58035, 2.5 h (FIG. 18B). In kind it is cell-based, mouse. On the procedure: Shown are representative tracings of the 340/380-nm Fura-2 fluorescence ratio in an individual macrophage from each treatment group before and after addition of 1 μM thapsigargin.
Untreated or cholesterol-loaded macrophages on 25-mm coverslip-containing microscopy dishes were loaded with 4 μM Fura-2 μM (Molecular Probes) and 0.08% Pluronic F-127 in Hank's buffered saline solution (HBSS) at room temperature for 30 min. The monolayers were then washed twice with HBSS, incubated with HBSS for an additional 30 min and mounted on the stage of an inverted Nikon diaphot microscope equipped with a 40× objective. Sulfinpyrazone (250 μM) was included in all solutions to prevent excretion of the Fura-2 by the macrophages. Fluorescence images (510-nm emission following alternate 340-nm and 380-nm excitation) were collected through a charge-coupled device camera (Photon Technology International), and the 340:380 ratio of individual cells in these images was calculated.
Cells exposed to U18666A alone or culture media with no additives served as further control groups. […] Thapsigargin treatment results in emptying of ER calcium stores into the cytosol, which was quantified by fluorescence microscopy, providing a measure of releasable ER calcium stores at the time of thapsigargin addition.

As to `CCN(CC)CCO[C@H]1CC[C@@]2(C)C(=CC[C@@H]3[C@@H]2CC[C@]2(C)C(=O)CC[C@@H]32)C1` [U18666A, 3-β-[2-(diethylamino)ethoxy]androst-5-en-17-one], in experiment [1], the “block of apoptosis in FC-loaded cultured macrophages” value is listed as “almost completely”. In addition, in experiment [2] (FC-loaded macrophages), the “concentrations at which efflux was gradually inhibited” value was “greater than 100 nM”. In experiment [2] (FC-loaded macrophages (FIGS. 11A, 11B)), the “induction of cholesterol efflux to ApoA-1” value is “marked ability to induce cholesterol efflux to ApoA-1”. Besides, the “concentration of peak cholesterol efflux to ApoA-1” value in experiment [2] (FC-loaded macrophages, 6 h apoA-I (FIG. 11A)) turned out to be 70 nM. In addition, in experiment [2] (optimal low doses, FC-loaded macrophages (FIG. 12A)), the “restoration of ABCA1-dependent efflux” value is listed as “restored ABCA1-dependent efflux”. In addition, the “increase of cholesterol efflux to apoA-I” value in experiment [3] was “about 30%”. In addition, in experiment [4] (12 weeks (FIG. 14B)), the “plasma HDL cholesterol versus vehicle” value is “similar”. Further, the “atherosclerotic lesion area, proximal aorta” value in experiment [4] (12 weeks (FIG. 14C), p<0.05) was “marked reduction”. In experiment [4] (12 weeks (FIG. 14D), p<0.05), the “acellular area, proximal aorta” value is given as “marked reduction”. For the same compound, the “lipid core area, proximal aorta” value in experiment [4] (12 weeks (FIG. 14E), p<0.05) is “marked reduction”. The “plasma total cholesterol versus vehicle” value in experiment [4] (12 weeks, cholesterol and saturated fat diet (FIG. 14A)) is recorded as “similar”. Further, in the experiment on ER calcium stores, the “FC-loading-induced depletion of ER calcium stores (smaller thapsigargin-induced rise)” value is on record as “completely prevented”.
